Measured values published in patent publication US4668688A, “N-substituted isoquinoline derivatives and pharmaceutical compositions containing them” (Richter Gedeon Vegyeszeti Gyar R.T., priority 1983, dated 1987).
Like-named read-outs stand apart in the source and are kept apart here.

Legend:
writhing syndrom = assay: Analgesic Activity (mice), acetic acid writhing syndrom; type: in vivo, CFLP (LATI) mice; details: for ED50: Mus musculus, po, read-out: Analgesic activity, ED50
Experimental: For the pharmacological tests CFLP (LATI) mice of both sexes, weighing 18 to 22 g each and male Han. Wistar (LATI) rats weighing 160 to 180 g each were used. The test materials were administered orally, in 30 mg/kg doses, in the form of a suspension containing 5% of Tween 80, one hour before the tests. 4. Analgesic Activity (mice) One hour after pretreatment, mice were administered 0.4 ml of a 0.6% acetic acid solution intraperitoneally, as a pain stimulus. The frequency of writhing syndrom is registered for 30 minutes.

Metrazole Spasm = Metrazole Spasm (mice), antispasm activity; type: in vivo, CFLP (LATI) mice; details: for Antispasm activity metrazole b: b) tonic extensoric spasm, 30 mg/kg orally
Experimental: (§1) For the pharmacological tests CFLP (LATI) mice of both sexes, weighing 18 to 22 g each and male Han. Wistar (LATI) rats weighing 160 to 180 g each were used. The test materials were administered orally, in 30 mg/kg doses, in the form of a suspension containing 5% of Tween 80, one hour before the tests.

Tetrabenazine Catalepsy = assay: Inhibition of Tetrabenazine Catalepsy (rats); type: in vivo, male Han. Wistar (LATI) rats; details: for Antitetrabenazine activity (%): rats, 30 mg/kg intraperitoneally, one hour before tetrabenazine
Experimental: as §1
3. Inhibition of Tetrabenazine Catalepsy
The test was carried out on male rats each weighing 160 to 180 g. The test materials were administered intraperitoneally, in a dose of 30 mg/kg, one hour before tetrabenazine administration.

Hyperthermia = assay: Antipyretic Activity (rats), Brewer's yeast hyperthermia; type: in vivo, male Han. Wistar (LATI) rats; details: 30 mg/kg orally, 4 h after yeast, % of animals at least one centigrade lower than control
Experimental: as §1
5. Antipyretic Activity (rats)
Hyperthermia is induced in rats with Brewer's yeast suspension (0.5% of Brewer's yeast, 1% of arabic gum in a volume of 0.3 ml, s.c.). The animals are treated with the test materials 4 hours later, and the tracheal temperature of the animals is registered with an ELAB thermometer (typ. TE-3) for 4 hours.

[1] = mice, pentylenetetrazole 125 mg/kg s.c.

Structure (SMILES) | ED50 (writhing syndrom; value marked ^x = ED50, mice, orally, 0.6% acetic acid i.p. writhing) [mg/kg] | analgesic activity (in words) (writhing syndrom; acetic acid writhing, mice) | analgesic activity relative to reference compound (Na-salicylate) (writhing syndrom; acetic acid writhing, mice) | Antispasm activity metrazole b (Metrazole Spasm; [1]) | anticonvulsive effect (in words) (Metrazole Spasm; test not given) | Antitetrabenazine activity (%) (Tetrabenazine Catalepsy) | antidepressive effect (in words) (Tetrabenazine Catalepsy; test not given) | Antipyretic activity (%) (Hyperthermia) | Analgesic activity (%) (writhing syndrom; mice, 30 mg/kg orally, 0.4 ml 0.6% acetic acid i.p., 30 minutes, vs control) | ED50 (Metrazole Spasm; Mus musculus, po; value marked ^x = ED50; b) tonic extensoric spasm, mice, orally, pentylenetetrazole 125 mg/kg s.c.) [mg/kg] | influence on writhing syndrom induced with acetic acid (in words) (writhing syndrom; 30 mg/kg dose, mice) | ED50 (writhing syndrom) [mg/kg]
COc1cc2c(cc1OC)C(C(CO)CO)N(C)CC2.Cl (centres unmarked) [Compound A, 1-[bis(hydroxymethyl)-methyl]-2-methyl-6,7-dimethoxy-1,2,3,4-tetrahydroisoquinoline hydrochloride] | 28 | valuable analgesic activity | four times more active than the reference compound | 20.0 | remarkable anticonvulsive and antidepressive effects | 20.0 | remarkable anticonvulsive and antidepressive effects | 20.0 | – | – | – | –
CCOc1cc2c(cc1OCC)C(C(CO)CO)N(CC(O)CC)CC2.Cl (stereo not drawn) [Compound B, 1-[bis-(Hydroxymethyl)-methyl]-2-(β-hydroxybutyl)6,7-diethoxy-1,2,3,4-tetrahydroisoquinoline hydrochloride] | – | somewhat lower analgesic activity than the above 2-methyl-compound | – | – | – | 20.0 | – | 20.0 | 40.0 | 20 | – | –
O=C(O)c1ccccc1O [Na--salicylate, Na-salicylate, reference compound] | – | – | – | 20.0 | – | – | – | 40.0 | – | – | practically not influenced | 113
